{"source": "patent US20050154022A1", "about": "“4-aryl piperidines” (H. Lundbeck A/S, priority 2004, published 2005)", "origin": "cited, not measured here", "settings_in_all_cases": "see Borowsky et al. (2002)", "key": {"[1]": {"test_system": "rat"}, "[2]": {"test_system": "guinea pig"}, "[3]": {"test_system": "rat", "remark": "listed apart in the source"}}, "data": [{"compound": "COCC1=C(C(=O)OC)[C@H](c2ccc(F)c(F)c2)N(C(=O)NCCCN2CCC(c3cccc(NC(C)=O)c3)CC2)C(=O)N1", "note": "[SNAP-7941]", "values": [{"measurement": "effect in rat forced-swim test (animal model of depression/anxiety)", "setting": "[1]", "result": "effects similar to clinically used antidepressants and anxiolytics"}, {"measurement": "effect in guinea pig maternal-separation vocalization test (animal model of depression/anxiety)", "setting": "[2]", "result": "effects similar to clinically used antidepressants and anxiolytics"}, {"measurement": "effect in rat social interaction test (animal model of depression/anxiety)", "setting": "[3]", "result": "effects similar to clinically used antidepressants and anxiolytics"}]}]}
